According to US20120225062A1 (priority 2011, published 2012):

Test system: KMS11 (human myeloma cell line)
Test: Cell Proliferation Assay (CellTiter-Glo, 3 days)
Type: cell-based
Settings: KMS-11, 72 h, KMS11-luc cells
Protocol: KMS11 (human myeloma cell line), were cultured in IMDM supplemented with 10% FBS, sodium pyruvate and antibiotics. Cells were plated in the same medium at a density of 2000 cells per well into 96 well tissue culture plates, with outside wells vacant, on the day of assay.
Test compounds supplied in DMSO were diluted into DMSO at 500 times the desired final concentrations before dilution into culture media to 2 times final concentrations. Equal volumes of 2× compounds were added to the cells in 96 well plates and incubated at 37° C. for 3 days.
After 3 days plates were equilibrated to room temperature and equal volume of CellTiter-Glow Reagent (Promega) was added to the culture wells. The plates were agitated briefly and luminescent signal was measured with luminometer.
Using the procedures of Cell Proliferation Assay, the EC50 concentrations of compounds of the examples were determined in KMS11 cells as shown in Table 4.

## C[C@H]1C[C@@H](c2ccncc2NC(=O)c2ccc(F)c(-c3c(F)cc(C4(O)CC4)cc3F)n2)C[C@@H](N)[C@@H]1O [Example 158, N-(4-((1R,3R,4R,5S)-3-amino-4-hydroxy-5-methylcyclohexyl)pyridin-3-yl)-6-(2,6-difluoro-4-(1-hydroxycyclopropyl)phenyl)-5-fluoropicolinamide]
  EC50: 64 nM

## COc1cc(F)c(-c2nc(C(=O)Nc3cnccc3[C@H]3C[C@@H](N)[C@H](O)[C@@H](C)C3)ccc2F)c(F)c1 [Example 5, N-(4-((1R,3R,4R,5S)-3-amino-4-hydroxy-5-methylcyclohexyl)pyridin-3-yl)-6-(2,6-difluoro-4-methoxyphenyl)-5-fluoropicolinamide]
  EC50: 62 nM

## C[C@H]1C[C@@H](c2ccncc2NC(=O)c2ccc(F)c(-c3c(F)cc(C4(O)COC4)cc3F)n2)C[C@@H](N)[C@@H]1O [Example 54, N-(4-((1R,3R,4R,5S)-3-amino-4-hydroxy-5-methylcyclohexyl)pyridin-3-yl)-6-(2,6-difluoro-4-(3-hydroxyoxetan-3-yl)phenyl)-5-fluoropicolinamide]
  EC50: 95 nM

## CCC(=O)c1cc(F)c(-c2nc(C(=O)Nc3cnccc3[C@H]3C[C@@H](N)[C@H](O)[C@@H](C)C3)ccc2F)c(F)c1 [Example 157, N-(4-((1R,3R,4R,5S)-3-amino-4-hydroxy-5-methylcyclohexyl)pyridin-3-yl)-6-(2,6-difluoro-4-propionylphenyl)-5-fluoropicolinamide]
  EC50: 68 nM

## CC(C)(C#N)c1cc(F)c(-c2nc(C(=O)Nc3cnccc3[C@@H]3CCC[C@H](N)C3)ccc2F)c(F)c1 [Example 167, N-(4-((1R,3S)-3-aminocyclohexyl)pyridin-3-yl)-6-(4-(2-cyanopropan-2-yl)-2,6-difluorophenyl)-5-fluoropicolinamide]
  EC50: 409 nM

## Cc1cc(F)c(-c2nc(C(=O)Nc3cnccc3[C@H]3C[C@@H](N)[C@@H](O)[C@@H](C)C3)ccc2F)c(F)c1 [Example 6, N-(4-((1R,3R,4S,5S)-3-amino-4-hydroxy-5-methylcyclohexyl)pyridin-3-yl)-6-(2,6-difluoro-4-methylphenyl)-5-fluoropicolinamide]
  EC50: 41 nM

## CC(C)OCc1cc(F)c(-c2nc(C(=O)Nc3cnccc3[C@@H]3CCC[C@H](N)C3)ccc2F)c(F)c1 [Example 155, N-(4-((1R,3S)-3-aminocyclohexyl)pyridin-3-yl)-6-(2,6-difluoro-4-(isopropoxymethyl)phenyl)-5-fluoropicolinamide]
  EC50: 264 nM

## N[C@H]1CCC[C@@H](c2ccncc2NC(=O)c2ccc(F)c(-c3c(F)cc(C4(F)CCOCC4)cc3F)n2)C1 [Example 153, N-(4-((1R,3S)-3-aminocyclohexyl)pyridin-3-yl)-6-(2,6-difluoro-4-(4-fluorotetrahydro-2H-pyran-4-yl)phenyl)-5-fluoropicolinamide]
  EC50: 366 nM

## C[C@@H]1C[C@H](N)C[C@H](c2ccncc2NC(=O)c2ccc(F)c(-c3c(F)cc([C@H](C)O)cc3F)n2)C1 [Example 73, N-(4-((1R,3S,5S)-3-amino-5-methylcyclohexyl)pyridin-3-yl)-6-(2,6-difluoro-4-((S)-1-hydroxyethyl)phenyl)-5-fluoropicolinamide]
  EC50: 21 nM

## C[C@@H]1C[C@H](N)C[C@H](c2ccncc2NC(=O)c2ccc(F)c(-c3c(F)cc(S(C)(=O)=O)cc3F)n2)C1 [Example 1, N-(4-((1R,3S,5S)-3-amino-5-methylcyclohexyl)pyridin-3-yl)-6-(2,6-difluoro-4-(methylsulfonyl)phenyl)-5-fluoropicolinamide]
  EC50: 383 nM

## CSc1cc(F)c(-c2nc(C(=O)Nc3cnccc3[C@H]3C[C@@H](N)[C@H](O)[C@@H](C)C3)ccc2F)c(F)c1 [Example 36, N-(4-((1R,3R,4R,5S)-3-amino-4-hydroxy-5-methylcyclohexyl)pyridin-3-yl)-6-(2,6-difluoro-4-(methylthio)phenyl)-5-fluoropicolinamide]
  EC50: 107 nM
